Measurements published in US20220128542A1, “TREATMENT EFFICIENCY EVALUATION” (TX MEDIC AB, priority 2019, published 2022).
Marks after values point to notes of the source that are not given here.

System: brain of rats subjected to severe traumatic brain injury (sTBI)
Test: HPLC of purine-pyrimidine metabolites (energy state, oxidative/nitrosative stress) in brain after sTBI (Example 1)
Type: in vivo, rat
Method: They were divided into three groups:
1) n=6 animals subjected to sTBI, with drug administration after 30 minutes and sacrifice at 2 days post-TBI (Acute phase 1)
2) n=6 animals subjected to sTBI, with drug administration after 30 minutes and sacrifice at 7 days post-TBI (Acute phase 2).
3) n=6 animals subjected to sTBI, with drug administration after 3 days and sacrifice at 7 days post-TBI (Chronic phase).
The drug treatment was a subcutaneous injection of 0.5 ml of LMW-DS (15 mg/kg) and administered according to the aforementioned schematic protocol.
After the wet weight (w.w.) determination, tissue preparation was affected as previously disclosed (Tavazzi et al., Neurosurgery. 2005; 56: 582-589; Vagnozzi et al., Neurosurgery. 2007; 61: 379-388; Tavazzi et al., Neurosurgery. 2007; 61: 390-395; Amorini et al., J Cell Mol Med. 2017; 21: 530-542.). Briefly, whole brain homogenization was performed with 7 ml of ice-cold, nitrogen-saturated, precipitating solution composed by CH3CN+10 mM KH2PO4, pH 7.40, (3:1; v:v), and using an Ultra-Turrax set at 24,000 rpm/min (Janke & Kunkel, Staufen, Germany). After centrifugation at 20,690×g, for 10 min at 4° C., the clear supernatants were saved, pellets were supplemented with 3 ml of the precipitating solution and homogenized again as described above. A second centrifugation was performed (20,690×g, for 10 min at 4° C.), pellets were saved, supernatants combined with those previously obtained, extracted by vigorous agitation with a double volume of HPLC-grade CHCl3 and centrifuged as above. The upper aqueous phases containing water-soluble low-molecular weight compounds were collected, subjected to chloroform washings for two more times (this procedure allowed the removal of all the organic solvent and of any lipid soluble compound from the buffered tissue extracts), adjusted in volumes with 10 mM KH2PO4, pH 7.40, to have ultimately aqueous 10% tissue homogenates and saved at −80° C. until assayed.
Aliquots of each deproteinized tissue samples were filtered through a 0.45 μm HV Millipore filter and loaded (200 μl) onto a Hypersil C-18, 250×4.6 mm, 5 μm particle size column, provided with its own guard column (Thermo Fisher Scientific, Rodano, Milan, Italy) and connected to an HPLC apparatus consisting of a Surveyor System (Thermo Fisher Scientific, Rodano, Milan, Italy) with a highly sensitive diode array detector (equipped with a 5 cm light path flow cell) and set up between 200 and 300 nm wavelength. Data acquisition and analysis were performed by a PC using the ChromQuest® software package provided by the HPLC manufacturer.
Metabolites belonging to the purine-pyrimidine profiles (listed below) and related to tissue energy state, mitochondrial function and relative to oxidative-nitrosative stresses were separated, in a single chromatographic run, according to slight modifications of existing ion-pairing HPLC methods (Lazzarino et al., Anal Biochem. 2003; 322: 51-59; Tavazzi et al., Clin Biochem. 2005; 38: 997-1008). Assignment and calculation of the compounds of interest in chromatographic runs of tissue extracts were carried out at the proper wavelengths (206, 234 and 260 nm) by comparing retention times, absorption spectra and areas of peaks with those of peaks of chromatographic runs of freshly-prepared ultra-pure standard mixtures with known concentrations. […]

[1] = Acute phase 1: 15 mg/kg s.c. 30 min post-sTBI, sacrifice day 2
[2] = Acute phase 2: 15 mg/kg s.c. 30 min post-sTBI, sacrifice day 7

Substance: sodium salt of dextran sulfate [LMW-DS]
- MDA levels (15 mg/kg s.c. after sTBI): significant reduction
- ascorbic acid and GSH levels (15 mg/kg s.c. after sTBI): significant improvement
- levels of NAA and its substrates (15 mg/kg s.c. after sTBI): significant improvements
- nitrate concentrations (15 mg/kg s.c., acute and chronic phases of sTBI): significantly decreased
- ADO brain concentration [1]: 71.67 ± 15.87 nmol/g (w.w.)
- ADP brain concentration [1]: 279.34 ± 29.59^b nmol/g (w.w.)
- ADP-ribose brain concentration [1]: 137.87 ± 43.18^a nmol/g (w.w.)
- AMP brain concentration [1]: 53.61 ± 17.91^a, c, j nmol/g (w.w.)
- ATP brain concentration [1]: 1464.25 ± 99.09^a, h nmol/g (w.w.)
- CDP brain concentration [1]: 25.53 ± 6.83^a, c nmol/g (w.w.)
- CDP choline brain concentration [1]: 10.93 ± 3.22^b, h nmol/g (w.w.)
- CTP brain concentration [1]: 18.98 ± 6.58^a, g nmol/g (w.w.)
- CoA-SH brain concentration [1]: 21.61 ± 3.42^a, h nmol/g (w.w.)
- GDP brain concentration [1]: 158.72 ± 24.57^a nmol/g (w.w.)
- GDP glucose brain concentration [1]: 38.71 ± 6.86 nmol/g (w.w.)
- GMP brain concentration [1]: 177.00 ± 32.39^a, g nmol/g (w.w.)
- GSH brain concentration [1]: 2649.50 ± 397.31^a, d nmol/g (w.w.)
- GSSG brain concentration [1]: 185.21 ± 48.10 nmol/g (w.w.)
- GTP brain concentration [1]: 255.29 ± 45.21^a, g nmol/g (w.w.)
- IMP brain concentration [1]: 67.71 ± 10.63^g, i nmol/g (w.w.)
- MDA brain concentration [1]: 12.47 ± 2.09^a, c, g nmol/g (w.w.)
- NAA brain concentration [1]: 6147.91 ± 989.12^a nmol/g (w.w.)
- NADH brain concentration [1]: 15.49 ± 2.05^c, j nmol/g (w.w.)
- NADPH brain concentration [1]: 6.22 ± 1.73 nmol/g (w.w.)
- NADP^+ brain concentration [1]: 17.95 ± 3.28^a nmol/g (w.w.)
- NAD^+ brain concentration [1]: 404.63 ± 51.10^a, c, i nmol/g (w.w.)
- NO2 brain concentration [1]: 216.03 ± 41.74^a nmol/g (w.w.)
- NO3 brain concentration [1]: 210.64 ± 91.95^d nmol/g (w.w.)
- UDP brain concentration [1]: 61.83 ± 10.23^a, g nmol/g (w.w.)
- UDP-Gal brain concentration [1]: 119.45 ± 12.50 nmol/g (w.w.)
- UDP-GalNac brain concentration [1]: 19.17 ± 4.01^a nmol/g (w.w.)
- UDP-Glc brain concentration [1]: 32.14 ± 4.59^g nmol/g (w.w.)
- UDP-GlcNac brain concentration [1]: 95.85 ± 19.73^h, i nmol/g (w.w.)
- UMP brain concentration [1]: 107.80 ± 21.62 nmol/g (w.w.)
- UTP brain concentration [1]: 123.46 ± 15.42^d nmol/g (w.w.)
- acetyl-CoA brain concentration [1]: 21.56 ± 6.22^a, g, i nmol/g (w.w.)
- adenine brain concentration [1]: 44.82 ± 6.31^a, d, g nmol/g (w.w.)
- ascorbic acid brain concentration [1]: 3733.10 ± 277.88^a, d nmol/g (w.w.)
- creatinine brain concentration [1]: 24.55 ± 3.20^b, g, i nmol/g (w.w.)
- cytidine brain concentration [1]: 15.40 ± 3.04 nmol/g (w.w.)
- cytosine brain concentration [1]: 17.69 ± 2.50^b, d nmol/g (w.w.)
- guanine brain concentration [1]: 4.80 ± 1.24^b nmol/g (w.w.)
- guanosine brain concentration [1]: 20.71 ± 5.66 nmol/g (w.w.)
- hypoxanthine brain concentration [1]: 14.47 ± 2.87^a nmol/g (w.w.)
- inosine brain concentration [1]: 92.55 ± 31.20^c nmol/g (w.w.)
- malonyl-CoA brain concentration [1]: 12.33 ± 1.82^b nmol/g (w.w.)
- orotic acid brain concentration [1]: 8.80 ± 2.45^b, h, j nmol/g (w.w.)
- thymidine brain concentration [1]: 0.69 ± 0.11 nmol/g (w.w.)
- uracil brain concentration [1]: 14.56 ± 5.44 nmol/g (w.w.)
- uric acid brain concentration [1]: 23.62 ± 3.77^a, d, h nmol/g (w.w.)
- uridine brain concentration [1]: 76.35 ± 12.85^a, c nmol/g (w.w.)
- xanthine brain concentration [1]: 9.46 ± 2.34^d nmol/g (w.w.)
- β-pseudouridine brain concentration [1]: 6.65 ± 1.309^g, i nmol/g (w.w.)
- ADO brain concentration [2]: 82.11 ± 16.51^a nmol/g (w.w.)
- ADP brain concentration [2]: 264.07 ± 28.29^b, e, j nmol/g (w.w.)
- ADP-ribose brain concentration [2]: 141.96 ± 23.56^a, e, j nmol/g (w.w.)
- AMP brain concentration [2]: 57.70 ± 23.01^a, e, j nmol/g (w.w.)
- ATP brain concentration [2]: 1632.23 ± 90.07^a, e, j nmol/g (w.w.)
- CDP brain concentration [2]: 24.29 ± 6.76^a nmol/g (w.w.)
- CDP choline brain concentration [2]: 6.91 ± 1.86 nmol/g (w.w.)
- CMP brain concentration [2]: 15.68 ± 2.12^f, j nmol/g (w.w.)
- CTP brain concentration [2]: 32.63 ± 3.99^e, i nmol/g (w.w.)
- CoA-SH brain concentration [2]: 30.57 ± 6.02^f nmol/g (w.w.)
- GDP brain concentration [2]: 126.70 ± 31.35^a, j nmol/g (w.w.)
- GDP glucose brain concentration [2]: 49.25 ± 10.33^a nmol/g (w.w.)
- GMP brain concentration [2]: 91.47 ± 12.35^e, i nmol/g (w.w.)
- GSH brain concentration [2]: 2821.50 ± 242.82^a, e nmol/g (w.w.)
- GSSG brain concentration [2]: 219.54 ± 53.36 nmol/g (w.w.)
- GTP brain concentration [2]: 336.65 ± 35.18^a, e, j nmol/g (w.w.)
- IMP brain concentration [2]: 102.63 ± 22.09^a nmol/g (w.w.)
- MDA brain concentration [2]: 4.82 ± 1.73^a, e, i nmol/g (w.w.)
- NAA brain concentration [2]: 7262.84 ± 749.73^a, e nmol/g (w.w.)
- NADH brain concentration [2]: 13.12 ± 4.19^e nmol/g (w.w.)
- NADPH brain concentration [2]: 7.05 ± 2.21 nmol/g (w.w.)
- NADP^+ brain concentration [2]: 21.27 ± 4.19^b, e, j nmol/g (w.w.)
- NAD^+ brain concentration [2]: 401.18 ± 34.53^a, e, i nmol/g (w.w.)
